The target of test [1] is T1, T. cruzi glucokinase (TcGlcK) (Trypanosoma cruzi, UniProt Q4E4E1).
T1 construct: precedes the start methionine and the 9-residue segment VGKKQKAQL at the C-terminal region was not included; made in house; host or cells: E. coli BL21(DE3)
In words: Two-enzyme coupled colorimetric glucokinase activity assay (G6PDH/NADPH), TcGlcK. The class given is biochemical. The note with it: for Glucokinase selectivity ratio = Ki (HsGlcK)/Ki (TcGlcK): higher values indicate better selectivity toward TcGlcK. Here is the method: (§1) Enzymatic activity of glucokinase from T. cruzi and H. sapiens were both performed using a similar protocol but had minor modifications. In general, a two-enzyme coupled colorimetric assay was performed, as previously described (4). The assay is based on the formation of NADPH (λmax≈340 nm; ϵ340=6,220 M^−1 cm^−1) (5). In the 1st step of the assay, glucokinase/hexokinase in the presence of Mg^2+, ATP, and D-glucose react to form glucose-6-phosphate (G-6-P) and ADP. In the 2nd step, glucose-6-phosphate dehydrogenase (G6PDH) in the presence of the formed G-6-P and NADP^+ react to form 6-phosphogluconolactone and NADPH. All measurements were performed in triplicate at 22° C.
TcGlcK assays used purified enzyme (0.12 μM for the monomer (0.0051 mg/mL)) that was used in the reaction mixtures, which were carried out with S. cerevisiae G6PDH (0.0064 mg/mL) in an assay buffer [50 mM triethanolamine (pH 7.6), 7.95 mM MgCl2, 0.55 mM ATP, 0.55 mM NADP^+] contained substrate ([D-glucose] ranged from 0.2-15.0 mM) and inhibitor ([BENZ-GlcN] ranged from 0-20 μM; [CBZ-GlcN] ranged from 0-10 μM; [HPOP-GlcN] ranged from 0-10 μM; and [DBT-GlcN] ranged from 0-20 μM). Reactions were performed at room temperature (22° C.) and were terminated after 120 sec (optimal time) using 90 μL of 1.5 M EDTA (pH 8.0). The EDTA solution was prepared from the tetrasodium salt. For quantification of NADPH, UV-visible spectrophotometric absorbance readings were recorded at 338 nm (λ) with an Agilent 8453 UV-visible spectrophotometer exactly 1 min after solutions were treated with the EDTA solution. Concentration of NADPH was determined through Beer's Law using the molar absorptivity of 6,220 M^−1 cm^−1.

Test [2] relates to T. cruzi (Tulahuen strain) intracellular amastigote parasite cells. The test can be described thus: T. cruzi in-vitro growth inhibition assay, amastigotes co-cultured in NIH/3T3 fibroblasts. In kind it is cell-based. The note with it: Trypanosoma cruzi, NIH3T3, co-cultured within NIH/3T3 fibroblast cells, triplicate. Here is the method: T. cruzi (Tulahuen strain) intracellular amastigote parasite cells co-cultured within NIH/3T3 mammalian fibroblast cells were tested for in-vitro growth inhibition from each of Samples 1-4. […] Samples 1, 3, and 4 had IC50 values>40 μM. The methods used for producing cultures of T. cruzi cells and mammalian cells in addition to the methods of performing T. cruzi in-vitro inhibition assays were previously described by Andriani and colleagues (20). All biological experimentation was carried out at the Anti-Infectives Screening Core Service Center at New York University School of Medicine, Department of Microbiology.

Test [3] concerns the target T2, Homo sapiens glucokinase (hexokinase IV) (HsGlcK) (Homo sapiens, UniProt P35557).
T2 construct: precedes residue K12 (N-terminal segment M1-A11 of HsGlcK was not included); made in house; host or cells: E. coli BL21(DE3)
T2 sequence (P35557 12-457 limits assumed): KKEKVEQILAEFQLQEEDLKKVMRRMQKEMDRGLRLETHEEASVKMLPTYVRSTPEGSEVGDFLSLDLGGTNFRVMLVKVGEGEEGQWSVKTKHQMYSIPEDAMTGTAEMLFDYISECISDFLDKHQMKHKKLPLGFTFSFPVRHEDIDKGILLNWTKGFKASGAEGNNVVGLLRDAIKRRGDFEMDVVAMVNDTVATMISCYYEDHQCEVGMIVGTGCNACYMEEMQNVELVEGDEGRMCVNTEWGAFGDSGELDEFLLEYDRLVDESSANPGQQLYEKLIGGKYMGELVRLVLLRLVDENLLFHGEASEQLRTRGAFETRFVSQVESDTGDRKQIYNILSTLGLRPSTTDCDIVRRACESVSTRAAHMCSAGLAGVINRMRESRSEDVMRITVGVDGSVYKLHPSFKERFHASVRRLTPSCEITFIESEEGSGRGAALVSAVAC
The test can be described thus: Two-enzyme coupled colorimetric glucokinase activity assay (G6PDH/NADPH), HsGlcK. Conditions: measurements in triplicate, 22° C., substrate D-glucose, compounds tested as racemic mixtures (n ≥ 2), read-out: Ki versus substrate, HsGlcK. In kind it is biochemical. How it is done: as §1
HsGlcK assays were performed at room temperature and used the same protocol implemented for TcGlcK (see above) except that the reactions were terminated after 600 sec (optimum time) with 90 μL of 1.5 M EDTA (pH 8.0) and the reaction mixtures had slight modification. Briefly, DTT, which reduces disulfide bonds was added to the stock solution aliquot of HsGlcK on the day of the experiment (e.g. 1.0 μL of 20 mM DTT was mixed with 99.0 μL of 1.0 mg/mL HsGlcK) and was allowed to pre-equilibrate at 4° C. for 30 min prior to running assay reactions. Purified HsGlcK (0.15 μM for the monomer or 0.0077 mg/mL) and S. cerevisiae G6PDH (0.0064 mg/mL) in an assay buffer [50 mM triethanolamine (pH 7.6), 7.95 mM MgCl2, 5.0 mM ATP, 0.55 mM […], 1.0% (v/v) DMSO, 1.0 mM DTT, 5.0 mM KCl] contained substrate ([D-glucose] ranged from 5.0-50.0 mM) and inhibitor ([BENZ-GlcN] ranged from 0-500 μM; [CBZ-GlcN] ranged from 0-500 μM; and [HPOP-GlcN] ranged from 0-500 μM). DBT-GlcN was not used in the inhibition enzymatic assays because this compound absorbs light at the wavelength of NADPH (338 nm) at the concentrations needed for any reasonable inhibition of HsGlcK.

The mark [4] stands for this setting: colorimetric assay, measurements in triplicate, 22° C., substrate D-glucose, compounds tested as racemic mixtures (n ≥ 2), read-out: Ki versus substrate, TcGlcK.

Read-outs that look alike come from different tables or passages of the source.

T1 sequence (Q4E4E1 entry or part of it): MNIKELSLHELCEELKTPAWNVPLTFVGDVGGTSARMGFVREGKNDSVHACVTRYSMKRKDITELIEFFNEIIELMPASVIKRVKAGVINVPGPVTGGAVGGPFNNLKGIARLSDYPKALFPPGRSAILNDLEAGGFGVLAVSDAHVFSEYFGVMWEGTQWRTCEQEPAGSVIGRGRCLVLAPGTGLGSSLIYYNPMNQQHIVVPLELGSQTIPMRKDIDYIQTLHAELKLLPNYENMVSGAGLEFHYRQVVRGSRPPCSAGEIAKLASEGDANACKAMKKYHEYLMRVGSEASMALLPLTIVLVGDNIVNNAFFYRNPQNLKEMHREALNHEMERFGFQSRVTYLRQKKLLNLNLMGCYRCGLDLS

Broadly, the Ki is the equilibrium dissociation constant of an inhibitor or competing ligand from its target. As a reminder, the IC50 is the concentration at which inhibition is half-maximal. Read a high IC50 as lower potency. As to `O=C(N[C@H]1C(O)O[C@H](CO)[C@@H](O)[C@@H]1O)OCc1ccccc1` (mixture of isomers) [CBZ-GlcN, 2-N-carboxybenzyl-2-deoxy-D-glucosamine], the results for the inhibition constant (Ki) in test [1] and in test [3] were 710 ± 50 nM and 174 ± 50 µM, respectively. Besides, the “Glucokinase selectivity ratio = Ki (HsGlcK)/Ki (TcGlcK)” value (“Glucokinase selectivity ratio = Ki” below) in test [1] was found to be 245. Further, in test [2], the IC50 was more than 40 µM.

As to `O=C(N[C@H]1C(O)O[C@H](CO)[C@@H](O)[C@@H]1O)OCC1=Cc2ccccc2S1(=O)=O` (mixture of isomers) [DBT-GlcN, 2-[[1,1-dioxobenzo[b]thiophen-2-yl]methyloxocarbonylamino]-2-deoxy-D-glucosamine], the Ki in test [1] (setting [4]) was 4100 ± 300 nM. The molecule also yielded an IC50 in test [2] of more than 40 µM.

Turning to `O=C(CCc1ccc(O)cc1)N[C@H]1C(O)O[C@H](CO)[C@@H](O)[C@@H]1O` (mixture of isomers) [HPOP-GlcN, 2-[[3-(4-hydroxyphenyl)-1-oxopropyl]amino]-2-deoxy-D-glucosamine], the Ki is 1300 ± 600 nM in test [1] and 242 ± 97 µM in test [3]. Besides, in test [1], the “Glucokinase selectivity ratio = Ki” value is 186. In test [2], this molecule came in with an IC50 of more than 40 µM.

In the case of `O=C(N[C@H]1C(O)O[C@H](CO)[C@@H](O)[C@@H]1O)c1ccccc1` (stereo partly drawn) [BENZ-GlcN, 2-benzamido-2-deoxy-D-glucopyranose], the results for the Ki in test [1] (setting [4]) and in test [3] were 32000 ± 26000 nM and 376 ± 196 µM, respectively. Moreover, the “Glucokinase selectivity ratio = Ki” value in test [1] came out at 12. The IC50 in test [2] came to 16.08 ± 0.16 µM.

The values above are taken from patent publication US9956240B2, “Therapeutic monosaccharide-based inhibitors of hexokinase and glucokinase for parasitic diseases, along with methods of their formation and use” (University of South Carolina, priority 2014, dated 2018).
